According to patent US11534441B2, “MAP4K1 inhibitors” (Blueprint Medicines Corporation, priority 2020, dated 2022):

Experiments:
MAP4K1 (HPK1) = MAP4K1 (HPK1) (Homo sapiens (Human), UniProt Q92918); test: MAP4K1 (HPK1) biochemical enzymatic activity, electrophoretic mobility shift (EZReader 2), ATP at APPKM (26 μM)
Summary of the method: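 Enzyme at 0.1-15 nM was incubated with 1.5 μM fluorescent peptide and ATP at the apparent Km (26 μM) in HEPES pH 7.5, MgCl2, DTT and Brij 35. The reaction ran at 25° C for 60-180 min with a 10-point, 4-fold compound series (1% DMSO) and was stopped with EDTA. Substrate and product peptides were resolved by microfluidic mobility shift, and their peak ratio gave activity.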

expanded CD3+ T cells = test: T cell enhancement of cytokines: IL2 measurement (HTRF) in expanded CD3+ T cells stimulated with anti-CD3/anti-CD28; assay type: cell-based, human; conditions: IL-2 measurement
Summary of the method: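 Healthy-donor T cells (95-98% CD3+) expanded 10-14 days with IL2 and CD3/CD28 beads, then cryopreserved. 100K cells/well in X-VIVO 10 serum-free medium were stimulated with plate-bound anti-CD3 plus soluble anti-CD28 with compound at various concentrations for 24 h. Secreted IL2 measured by HTRF after 24 h antibody incubation.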

[1] = Homo sapiens, T-cell, class designation
[2] = Homo sapiens, T-cell, numeric value

Chain of MAP4K1 (HPK1) (Q92918 whole entry): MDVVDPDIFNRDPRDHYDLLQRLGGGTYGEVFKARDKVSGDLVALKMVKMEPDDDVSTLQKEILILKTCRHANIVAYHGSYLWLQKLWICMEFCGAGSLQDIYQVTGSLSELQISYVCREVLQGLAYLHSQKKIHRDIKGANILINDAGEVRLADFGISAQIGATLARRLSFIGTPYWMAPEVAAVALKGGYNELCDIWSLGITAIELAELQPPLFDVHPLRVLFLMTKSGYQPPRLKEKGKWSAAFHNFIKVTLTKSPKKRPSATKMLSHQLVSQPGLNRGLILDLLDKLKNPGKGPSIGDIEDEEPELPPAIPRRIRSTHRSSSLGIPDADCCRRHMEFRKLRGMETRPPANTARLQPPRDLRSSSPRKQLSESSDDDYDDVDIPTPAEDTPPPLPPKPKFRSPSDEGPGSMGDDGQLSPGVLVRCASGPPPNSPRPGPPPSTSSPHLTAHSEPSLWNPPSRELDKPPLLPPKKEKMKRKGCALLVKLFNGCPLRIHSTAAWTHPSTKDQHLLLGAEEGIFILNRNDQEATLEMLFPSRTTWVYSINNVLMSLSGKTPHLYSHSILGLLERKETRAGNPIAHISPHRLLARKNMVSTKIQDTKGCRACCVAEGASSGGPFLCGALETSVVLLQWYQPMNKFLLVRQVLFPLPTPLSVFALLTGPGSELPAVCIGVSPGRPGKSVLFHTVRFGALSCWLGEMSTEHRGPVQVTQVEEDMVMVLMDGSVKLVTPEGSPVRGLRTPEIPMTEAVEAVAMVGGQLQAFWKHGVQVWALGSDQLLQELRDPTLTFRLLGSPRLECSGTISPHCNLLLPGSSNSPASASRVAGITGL

SMILES	IC50 (MAP4K1 (HPK1); class designation) [nM]	IC50 (MAP4K1 (HPK1); numeric value) [nM]	EC50 (expanded CD3+ T cells; class designation) [nM]	EC50 (expanded CD3+ T cells; numeric value) [nM]	EC50 (expanded CD3+ T cells; [1]) [nM]	EC50 (expanded CD3+ T cells; [2]) [nM]
C[C@@H]1OC(=O)c2ccc(Nc3cc4c([C@](C)(N)C5CCC5)cnc(OC5CC5)c4cn3)nc2[C@H]1C [Compound 170]	< 0.3	0.07	< 35	6.8		
CC[C@]1(C)OC(=O)c2ccc(Nc3cc4c(C(C)(C)N)cnc(OCC(F)(F)F)c4cn3)nc21 [Compound 172]	1.1 to 10	4.47	> 55	74.8		
CC[C@@]1(C)OC(=O)c2ccc(Nc3cc4c(C(C)(C)N)cnc(OCC(F)(F)F)c4cn3)nc21 [Compound 174]	1.1 to 10	2.9	< 35	28.2		
CC(C)(N)c1cnc(OCC(F)(F)F)c2cnc(Nc3ccnc([C@@H]4CCC[C@@H](O)C4)n3)cc12 [Compound 176]	0.31 to 1	0.8	< 35	20.9		
C[C@@H]1OC(=O)c2ccc(Nc3cc4c(C(C)(C)N)cnc(OC5CC(F)(F)C5)c4cn3)nc2[C@H]1C [Compound 178]	< 0.3	0.29			> 55	58.7
CC1(C)Cc2nc(Nc3cc4c(C(C)(C)NC5COC5)cnc(OC5CC5)c4cn3)ccc2C(=O)O1 [Compound 183]	> 10	26.4			< 35	3.1
COC[C@@](C)(N)c1cnc(OC)c2cnc(Nc3ccc4c(n3)[C@@H](C)[C@H](C)OC4=O)cc12 [Compound 188]	< 0.3	0.09	< 35	6.8		
COC[C@@](C)(N)c1cnc(OC2CC2)c2cnc(Nc3ccc4c(n3)[C@@H](C)C(C)(C)OC4=O)cc12 [Compound 189]	< 0.3	0.16	45.1 to 55	45.8		
CC[C@](C)(N)c1cnc(OC2CC2)c2cnc(Nc3ccc4c(n3)C3(CC3)C(C)(C)OC4=O)cc12 [Compound 196]	< 0.3	0.1	< 35	19		
CC[C@@H](N)c1cnc(OC)c2cnc(Nc3ccc4c(n3)[C@@H](C)C(C)(C)OC4=O)cc12 [Compound 204]	< 0.3	0.22	< 35	29.8		
COC[C@@](C)(N)c1cnc(C)c2cnc(Nc3ccc4c(n3)[C@@H](C)[C@H](C)OC4=O)cc12 [Compound 205]	0.31 to 1	0.35			> 55	113
COC[C@@H](N)c1cnc(OC)c2cnc(Nc3ccc4c(n3)[C@@H](C)C(C)(C)OC4=O)cc12 [Compound 208]	0.31 to 1	0.7	> 55	96		
CC[C@@H](N)c1cnc(C)c2cnc(Nc3ccc4c(n3)[C@@H](C)C(C)(C)OC4=O)cc12 [Compound 210]	< 0.3	0.23	> 55	177		
